For 15 compounds, Kd, DC50 and Dmax results are on record in patent US20260373266A1, “PROTEIN DEGRADERS AND USES THEREOF” (KYMERA THERAPEUTICS, INC., priority 2022, published 2026).

Bounds are passed on as bounds.

In general, Kd refers to a measure of binding affinity in units of concentration. The DC50 is the concentration giving 50% degradation.

In one test the target is T1, DCAF1 WD40 domain (residues 1077-1390) (Homo sapiens, UniProt Q9Y4B6).
T1 construct: DCAF1 WD40 domain (residues 1077-1390)
T1 sequence (Q9Y4B6 1077-1390): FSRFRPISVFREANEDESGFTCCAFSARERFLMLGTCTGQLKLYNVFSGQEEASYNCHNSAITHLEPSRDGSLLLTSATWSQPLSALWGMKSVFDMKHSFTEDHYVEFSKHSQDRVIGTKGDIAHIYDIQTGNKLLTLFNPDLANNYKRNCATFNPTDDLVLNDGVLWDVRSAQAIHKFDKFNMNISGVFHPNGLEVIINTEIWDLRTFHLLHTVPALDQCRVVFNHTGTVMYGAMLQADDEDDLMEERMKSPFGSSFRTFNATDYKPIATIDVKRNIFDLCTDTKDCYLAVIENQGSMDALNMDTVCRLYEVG
The experiment in a line: DCAF1 binding assay by SPR (Biacore 8K+), DCAF1-3 KD. Particulars: 25 °C, read-out: DCAF1-3 SPR (KD).
Take `Cc1sc2c(c1C)C(c1ccc(Cl)cc1)=N[C@@H](CC(=O)NCCOCCOCCOCCOCCOCCCc1ccc(C(=O)c3[nH]cc(C(=O)N[C@@H](CC(N)=O)c4cccc(Cl)c4)c3-c3c(F)ccc(F)c3C)cc1)c1nnc(C)n1-2` [I-907]: the Kd was below 10 µM.
As to `Fc1cccc(N2CCC[C@@H](Nc3cc(N4CCOCC4)ccn3)C23COC3)c1` [I-280], the Kd was above 200 µM.
Consider `COCCOCCc1[nH]cc(C(=O)N[C@@H](CC(N)=O)c2cccc(Cl)c2)c1-c1ccccc1F` [I-557], for which the Kd was below 10 µM.
`Cc1c(F)ccc(F)c1-c1c(C(=O)N[C@@H](CC(N)=O)c2cccc(Cl)c2)cn(C(C)C)c1C#N` [I-976]: the Kd is below 10 µM.
Take `NC(=O)C[C@](CC(=O)O)(NC(=O)c1c[nH]nc1-c1ccccc1F)c1cccc(Cl)c1` [I-295]: the Kd is above 200 µM.
On to `NC(=O)N1Cc2ccc(N3CCC[C@@H]4[C@H]3CCN4c3cc(N4CCCCC4)ccn3)cc2C1` [I-957], for which the Kd was in the range of 10 to 100 µM.
`Fc1cccc(N2CCC[C@@H](Nc3nc(N4CCOCC4)c[nH]3)C2)c1` [I-326]: the Kd is above 200 µM.
As for `CN(c1ccccc1)c1ccnc(N[C@@H]2CCCN(c3cccc(F)c3)C2)c1` [I-614], the Kd was in the range of 10 to 100 µM.
For `OC[C@@H]1CCN(c2cccc(F)c2)C[C@@H]1Nc1cc(N2CCCCC2)ccn1` [I-988], the Kd was in the range of 100 to 200 µM.
Same read-out and setting: the value for `NC(=O)c1ccc(N2CCC[C@@H](Nc3cc(N4CCOCC4)ccn3)C2)cc1` [I-769] was above 200 µM.
Consider `CC(C)c1cccc(-c2[nH]ncc2C(=O)N[C@@H](CC(N)=O)c2cccc(Cl)c2)c1` [I-525], for which the Kd was 10 to 100 µM.
In the case of `NC(=O)C[C@H](NC(=O)c1cn[nH]c1-c1ccccc1F)c1cccc(O)c1` [I-129], the Kd was above 200 µM.
For the compound `NC(=O)C[C@H](NC(=O)c1c[nH]c(C(=O)c2ccccc2)c1-c1ccccc1F)c1cccc(Cl)c1` [I-603], the Kd is below 10 µM.
In the case of `Cc1sc2c(c1C)C(c1ccc(Cl)cc1)=N[C@@H](CC(=O)NCCCCCCCCCCCCCCCCCCCCC1CCN(c3ccnc(N4CC[C@@H]5[C@H]4CCCN5c4cccc(F)c4)c3)CC1)c1nnc(C)n1-2` [I-903], the Kd is above 200 µM.

Staying with this test, now noted: DCAF1-3 SPR (KD), 25 °C.
In turn, `Cc1sc2c(c1C)C(c1ccc(Cl)cc1)=N[C@@H](CC(=O)NCCOCCOCCOCCOCCCc1ccc(C(=O)c3[nH]cc(C(=O)N[C@@H](CC(N)=O)c4cccc(Cl)c4)c3-c3c(F)ccc(F)c3C)cc1)c1nnc(C)n1-2` [I-905, N—((S)-3-amino-1-(3-chlorophenyl)-3-oxopropyl)-5-(4-(1-((S)-4-(4-chlorophenyl)-2,3,9-trimethyl-6H-thieno[3,2-f][1,2,4]triazolo[4,3-a][1,4]diazepin-6-yl)-2-oxo-6,9,12,15-tetraoxa-3-azaoctadecan-18-yl)benzoyl)-4-(3,6-difluoro-2-methylphenyl)-1H-pyrrole-3-carboxamide] returned an equilibrium dissociation constant (Kd) below 10 µM.

The next test concerns BRD4 (N-terminally HiBiT-tagged, HEK293T cells). The experiment in a line: BRD4 degradation in HiBiT-BRD4-HEK293T cells. The format is cell-based.
Conditions: not given
A general note: With HiBiT, luminescence reflects the tagged protein that the partner subunit can reach.
Regarding `Cc1sc2c(c1C)C(c1ccc(Cl)cc1)=N[C@@H](CC(=O)NCCOCCOCCOCCOCCOCCCc1ccc(C(=O)c3[nH]cc(C(=O)N[C@@H](CC(N)=O)c4cccc(Cl)c4)c3-c3c(F)ccc(F)c3C)cc1)c1nnc(C)n1-2` [I-907], the half-maximal degradation concentration (DC50) is 0.01 to 0.1 µM and the Dmax result is on record as “B (70-90%)”.
In the case of `Cc1sc2c(c1C)C(c1ccc(Cl)cc1)=N[C@@H](CC(=O)NCCOCCOCCOCCOCCCc1ccc(C(=O)c3[nH]cc(C(=O)N[C@@H](CC(N)=O)c4cccc(Cl)c4)c3-c3c(F)ccc(F)c3C)cc1)c1nnc(C)n1-2` [I-905, N—((S)-3-amino-1-(3-chlorophenyl)-3-oxopropyl)-5-(4-(1-((S)-4-(4-chlorophenyl)-2,3,9-trimethyl-6H-thieno[3,2-f][1,2,4]triazolo[4,3-a][1,4]diazepin-6-yl)-2-oxo-6,9,12,15-tetraoxa-3-azaoctadecan-18-yl)benzoyl)-4-(3,6-difluoro-2-methylphenyl)-1H-pyrrole-3-carboxamide], the DC50 was above 0.5 µM and the Dmax result is given as “B (70-90%)”.
